The nature of data set [1]: refractive index (Na D-line) (dimensionless). The settings on record: 101.33 kPa, Liquid, Standard Abbe refractometry.
For data set [2] the following is noted: 101.33 kPa, Liquid, Vibrating tube method.

In the NIST ThermoML archive (doi:10.1016/j.fluid.2016.10.027) one finds refractive index and mass density data, which are given here for 4 molecules.

Molecules are shown by their SMILES. Numbers after ± are expanded uncertainties.

On to `O` [water], for which the refractive index in data set [1] (298.15 K) came out at 1.332 ± 0.0005.
Turning to `CC(=O)O` [acetic acid], the mass density in data set [2] (298.15 K) is 1044.6 ± 2 kg/m3. In addition, the refractive index in data set [1] (298.15 K) is listed as 1.3703 ± 0.0005.
As to `CCC(C)O` (configuration not stated) [butan-2-ol], in data set [2] (298.15 K), the mass density is 804 ± 2 kg/m3. In data set [1] (298.15 K), the refractive index was 1.3962 ± 0.0005.
In the case of `CCC(C)OC(C)=O` (configuration not stated) [1-methylpropyl ethanoate], the mass density in data set [2] (293.15 K) turned out to be 871 ± 2 kg/m3. The refractive index in data set [1] (293.15 K) was found to be 1.3876 ± 0.0006.
